Reference: patent US5837706A, “Drug for neuroprotection” (Daiichi Pharmaceutical Co., Ltd., priority 1993, dated 1998)
“Also recorded” adds a separate entry of the source. Read-outs that look alike come from different tables or passages of the source.

How the values were obtained:
fodrin [1] = test: Change in fodrin in cerebral ischemic model (western blotting); format: in vivo; conditions: cerebral ischemic model of gerbil; 100 mg/kg 1 hour before ischemia, evaluated 48 hours thereafter
Experimental: Both common carotid arteries of a gerbil were ligated for 10 minutes to thereby prepare a cerebral ischemic model. Four, 24 and 48 hours after allowing the blood stream to flow again, the hippocampus was taken out and homogenized with 20 mM tris buffer (pH 7.5) containing 0.1 mM leupeptin, 0.1 mM PMSF and […]. After centrifuging at 10,000×g for 30 minutes, proteins in the supernatant were separated by SDS-PAGE. Then fodrin and breakdown products thereof were identified by the same method as the one described in Pharmacological Example 3. The compound B (100 mg/kg) was administered 1 hour before cerebral ischemia and evaluated 48 hours thereafter. Fodrin breakdown products were little detected from the normal gerbil. In the case of the cerebral ischemic model, on the other hand, breakdown products appeared 4 hours after allowing the blood stream to flow again and similar bands were observed after 48 hours.

hippocampal calmodulin [2] = test: Effect on intracellular localization of hippocampal calmodulin in hippocampal homogenate (radioimmunoassay); format: biochemical, gerbil; conditions: for effect on the behavior of calmodulin in the presence of EGTA / Calmodulin Content, Soluble Fraction / Calmodulin Content, Membrane Fraction: 1 mM EGTA; for Calmodulin Content, Soluble Fraction / Calmodulin Content, Membrane Fraction: hippocampal homogenate, 37° C., 30 minutes, 1 mM CaCl2, or 1 mM CaCl2 + 10 μM compound A; for Calmodulin Content, Soluble Fraction: control 4.5 ± 0.13; for Calmodulin Content, Membrane Fraction: control 8.8 ± 0.25
Experimental: The hippocampus of a gerbil was homogenized with 20 mM tris buffer (pH 7.5) containing 0.1 mM leupeptin, 0.1 mM PMSF and 0.01 mg/ml of aprotinin. […] The precipitate was solubilized with 0.1% Lubrol PX. Then the calmodulin contents in the soluble fraction and the membrane fraction were determined by radioimmunoassay.

[3] = molecular target: T1, calmodulin-depending phosphodiesterase (CaM-PDE) / calmodulin (Bos taurus, UniProt P62157); test: Calmodulin inhibition effect: inhibition of calmodulin-depending phosphodiesterase (PDE); format: biochemical, bovine
T1 construct: calmodulin (CaM, from bovine brain); from tissue; host or cells: bovine brain
Experimental: The calmodulin inhibition effect of a compound was evaluated by using its effect of inhibiting calmodulin-depending phosphodiesterase (PDE) as an index. […] After ceasing the reaction by heating in a boiling water bath for 1 minute, snake venom (1 mg/ml) was added thereto and the resulting mixture was reacted at 30° C. for 10 minutes to thereby convert 5'-GMP formed by PDE into guanosine. Next, the unreacted cGMP was adsorbed by an ion exchange resin (AGI-X8). Subsequently, the mixture was centrifuged and the radioactivity of the supernatant was measured with a liquid scintillation counter.

[4] = test system: hippocampal CA1 neuronal cells; test: Change in hippocampal neuronal cells in cerebral ischemic model; format: in vivo, gerbil; conditions: for Hippocampal Neuronal Cell Density: 100 mg/kg orally 1 hour after 5 min ischemia, CA1, 7 days, n = 9-10, normal 194 ± 6.1, ischemia 9 ± 1.3; for protective effect on neuronal cells / suppression of neuronal cell death: cerebral ischemia, gerbil, 100 mg/kg orally 1 hour after ischemia
Experimental: When transient cerebral ischemia was loaded to a gerbil, necrosis of hippocampal cells was observed from several days thereafter. This change is called delayed neuronal cell death. Cerebral ischemia was loaded to a gerbil for 5 minutes. Seven days thereafter, the animal was sacrificed and the neuronal cells remaining in the hippocampal CA1 region were counted. Most of the hippocampal CA1 cells died due to the cerebral ischemia.

hippocampal calmodulin [5] = test: Effect on intracellular localization of hippocampal calmodulin in cerebral ischemic gerbil (radioimmunoassay); format: in vivo; conditions: for increase in the calmodulin content in the membrane fraction / translocation of calmodulin after cerebral ischemia: cerebral ischemic model of gerbil, 100 mg/kg orally, 24 hours after ischemia
Experimental: Both common carotid arteries of a gerbil were ligated for 10 minutes. One hour and 24 hours after allowing the blood stream to flow again, the calmodulin content in the hippocampus was determined by radioimmunoassay. The compound A (100 mg/kg) was suspended in 0.5% methylcellulose and orally administered to the animal 1 hour before cerebral ischemia.

fodrin [6] = conditions: Seubert et al., Synapse 1987; cited from earlier work
fodrin [7] = test: Effect of calcium ion on breakdown of cytoskeltal protein fodrin in hippocampal homogenate (western blotting); format: biochemical, gerbil; conditions: 1 mM CaCl2 or 1 mM EGTA, 37° C., 1 hour
Experimental: The hippocampus taken out from a gerbil was homogenized with 20 mM tris buffer (pH 7.5). […] Then the homogenate was centrifuged at 10,000×g for 30 minutes. After separating proteins contained in the supernatant fraction by SDS-PAGE, the proteins were identified by western blotting with the use of a fodrin antibody (rabbit anti α-Spectrin) and a calmodulin antibody (sheep anti-bovine calmodulin).

[8] = test system: delayed neuronal cell death; conditions: Kogure et al. 1990; cited from earlier work
[9] = 100 mg/kg orally 1 hour before 10 min ischemia, 24 hrs after ischemia, n = 10-12

Row | SMILES | fodrin breakdown products due to cerebral ischemia (fodrin [1]) | effect on the behavior of calmodulin in the presence of EGTA (hippocampal calmodulin [2]) | Calmodulin Content, Soluble Fraction (hippocampal calmodulin [2]) | Calmodulin Content, Membrane Fraction (hippocampal calmodulin [2]) | selectivity for calmodulin [3] | Hippocampal Neuronal Cell Density [4] | protective effect on neuronal cells / suppression of neuronal cell death [4] | increase in the calmodulin content in the membrane fraction / translocation of calmodulin after cerebral ischemia (hippocampal calmodulin [5]) | stable breakdown products of fodrin (140-150 kDa) (fodrin [7]) | other results
1 | COc1ccc(Cn2nc(CCN3CCN(c4cccc(Cl)c4C)CC3)c3cc(OC)c(OC)cc32)cc1OC [compound A] | suppress | no effect | 1.75 ± 0.52 μg/mg protein | 7.1 ± 0.50 μg/mg protein | high selectivity for calmodulin | 98 ± 22.0 /mm | a protective effect on neuronal cells was clearly observed; also recorded: suppress neuronal cell death | significantly suppressed; also recorded: suppress | – | change in calmodulin content / localization caused by calcium ion (hippocampal calmodulin [2]; 10 μM compound A, 1 mM calcium chloride, in vitro): significantly suppressed; IC50 [3]: 3.93 µM; Calmodulin Content, Cytoplasm Fraction (hippocampal calmodulin [5]; [9]): 1.3 ± 0.08 μg/mg protein; Calmodulin Content, Membrane Fraction (hippocampal calmodulin [5]; [9]): 1.4 ± 0.05 μg/mg protein
2 | CN1CCN(CCCN2c3ccccc3Sc3ccc(C(F)(F)F)cc32)CC1 [trifluoropelazine] | – | – | – | – | – | – | – | – | – | breakdown of fodrin (fodrin [6]): suppressed
3 | COc1cc2c(CCN3CCN(c4cccc(Cl)c4C)CC3)nn(Cc3c[nH]cn3)c2cc1OC [compound B] | scarcely detected; also recorded: suppress | – | – | – | high selectivity for calmodulin | 131 ± 21.2 /mm | a protective effect on neuronal cells was clearly observed; also recorded: suppress neuronal cell death | suppress | – | IC50 ([3]; pH 7.5, 1 mM CaCl2, 30° C., 10 minutes): 5.46 µM
4 | O=C(O)CN(CCOCCOCCN(CC(=O)O)CC(=O)O)CC(=O)O [EGTA, ethylenebis(oxyethylenenitrylo)tetraacetic acid, reference compound] | – | – | 12.3 ± 0.77 μg/mg protein | 7.6 ± 0.40 μg/mg protein | – | – | – | – | little observed | –
5 | [Ca+2].[Cl-].[Cl-] [CaCl2, calcium chloride, reference compound] | – | – | – | 11.4 ± 0.34 μg/mg protein | – | – | – | – | bands of the breakdown products appeared | calmodulin content in the membrane fraction, change in words (hippocampal calmodulin [2]; 1 mM calcium chloride, compared with EGTA): increased
6 | NCCCCCCNS(=O)(=O)c1cccc2c(Cl)cccc12 [W-7, reference compound] | – | no effect | – | – | – | – | – | – | – | effect of suppressing delayed neuronal cell death [8]: no effect
